The subject of assay [1] is Bc. Particulars: up to 32 μg/ml; for MIC: spores, 96 h; for MFC / MBC/MFC: spotted on PD plate 24~72 h.
Assay [2] deals with Cgl FST02. The note with it: up to 32 μg/ml; for MIC: spores, 96 h; for MFC / MBC/MFC: spotted on PD plate 24~72 h.
In assay [3] the test system is Xev Xvt28. Particulars: 24 h.
Assay [4] concerns Eco DH5α. The note with it: DH5α, 24 h.
The test system of assay [5] is Eco DH5α. Particulars: 48 h.
Assay [6] concerns Ech. Particulars: up to 32 μg/ml.
Assay [7] relates to Pcc. The note with it: up to 32 μg/ml.
Assay [8] concerns Botrytis cinerea (Bc). The assay can be described thus: Plant disease response, Bc infection of tomato L390 leaves. The note with it: crude peptide 16 μg/ml mixed with Bc spores (10^4 spores/ml), 47–70 h post-inoculation, vs water. Format: in vivo, Solanum lycopersicum.
Assay [9] has as its system Rs Pss190. Particulars: Table 5, minimal medium, crude peptides, up to 32 μg/ml; for MIC: 96 h; for MBC/MFC: spotted on rich agar 48 h.
Assay [10] has as its system Botrytis cinerea (Bc). Briefly: Plant disease response, Bc infection of Arabidopsis Col0 leaves. Particulars: crude peptide 16 μg/ml mixed with Bc spores (10^5 spores/ml), Arabidopsis Col0 leaves, 47–70 h post-inoculation, vs water. Format: in vivo, Arabidopsis thaliana.
The test system of assay [11] is Pectobacterium carotovorum subsp. carotovorum (Pcc). Briefly: Plant disease response, Pcc infection of tomato L390 leaves. Particulars: crude peptide 16 μg/ml mixed with Pcc, detached wounded tomato L390 leaves, 16–28 h post-inoculation, vs water. Format: in vivo, Solanum lycopersicum.
Assay [12] concerns Rs Pss4. The note with it: Table 5, minimal medium, crude peptides, up to 32 μg/ml; for MIC: 96 h; for MBC/MFC: spotted on rich agar 48 h.
The subject of assay [13] is Pectobacterium carotovorum subsp. carotovorum (Pcc). Briefly: Plant disease response, Pcc infection of Arabidopsis Col0 leaves. The assay is classed as in vivo, Arabidopsis thaliana. Particulars: crude peptide 16 μg/ml mixed with Pcc, wounded leaves of Arabidopsis Col0, 16–28 h post-inoculation, vs water.
Assay [14] relates to Rs. The assay is classed as cell-based, Ralstonia solanacearum. Particulars: crude peptide, 5 μl of 64 μg/ml in 20 μl, bacteria OD600=0.4 in water, 2 h, confocal microscopy.
Assay [15] deals with Eco. The assay is classed as cell-based, Escherichia coli.
Where [16] appears, read: Table 7, rich media, spotted on rich agar 48 h.
Where [17] appears, read: Table 5, minimal medium, crude peptides, 96 h.
Where [18] appears, read: Table 5, minimal medium, crude peptides, spotted on rich agar 48 h.
Where [19] appears, read: Table 5, minimal (CD) medium, crude peptides.

Converted amounts (≈) assume the structure as drawn. Like-named read-outs stand apart in the source and are kept apart here. Where a SMILES comes first, the peptide text is derived from it. The star is where a group is joined. Palmitoyl = CCCCCCCCCCCCCCCC(=O)*; Myristoyl = CCCCCCCCCCCCCC(=O)*

Regarding `CCCCCCCCCCCCCCCC(=O)N[C@@H](Cc1c[nH]c2ccccc12)C(=O)N[C@@H](CCCCN)C(=O)N[C@@H](CCCCN)C(=O)N[C@@H](CC(C)C)C(=O)N[C@@H](CCCCN)C(=O)N[C@@H](CCCCN)C(=O)N[C@@H](CC(C)C)C(=O)N[C@@H](CC(C)C)C(=O)N[C@@H](CCCCN)C(=O)N[C@@H](CCCCN)C(=O)N[C@@H](CC(C)C)C(=O)N[C@@H](CCCCN)C(=O)N[C@@H](CCCCN)C(=O)N[C@@H](CC(C)C)C(N)=O` [pepD2P] (Palmitoyl-WKKLKKLLKKLKKL-NH2), the MIC was 8 µg/mL (≈ 3.94 µM) in assay [1] (Table 6, minimal media) and 8 µg/mL (≈ 3.94 µM) in assay [2] (Table 6, minimal media). Moreover, the MFC in assay [1] (Table 6, minimal media) came to 8 µg/mL (≈ 3.94 µM); in [2] (Table 6, minimal media), 8 µg/mL (≈ 3.94 µM).
Ac-WKLKLKLKLKLKLKLKLK-NH2 [pepE]: the IC50 in [3] was 2 µg/mL; in [4], 10 µg/mL.
For the molecule Ac-WKKVKKVVKKVKKV-NH2 [pepV2], the values for the MBC in [5], in assay [6] (setting [16]) and in assay [7] (setting [16]) were 32 µg/mL, “– (“–” indicates that no antimicrobial activity was detected in rich media at the highest peptide concentration (32μg/ml) that was tested in this study.)” and “– (“–” indicates that no antimicrobial activity was detected in rich media at the highest peptide concentration (32μg/ml) that was tested in this study.)”, respectively. In addition, the MIC was 32 µg/mL in assay [5]; “– (“–” indicates that no antimicrobial activity was detected in rich media at the highest peptide concentration (32μg/ml) that was tested in this study.)” in assay [6] (Table 7, rich media, 48 h); “– (“–” indicates that no antimicrobial activity was detected in rich media at the highest peptide concentration (32μg/ml) that was tested in this study.)” in [7] (Table 7, rich media, 48 h).
Turning to Ac-WKLLKKLLKKLKKLLKKL-NH2 [pepC], the IC50 in assay [3] and in [4] was 10 µg/mL each time.
In the case of Stearyl-WKKLKKLLKKLKKL-NH2 [pepD2S], the MIC result in assay [1] (Table 6, minimal media) is reported as “– (“–” indicates that no antimicrobial activity was detected in minimal media at the highest peptide concentration (32μg/ml) that was tested in this study.)”; in assay [2] (Table 6, minimal media) it was “– (“–” indicates that no antimicrobial activity was detected in minimal media at the highest peptide concentration (32μg/ml) that was tested in this study.)”. Besides, the MFC entry in assay [1] (Table 6, minimal media) is “– (“–” indicates that no antimicrobial activity was detected in minimal media at the highest peptide concentration (32μg/ml) that was tested in this study.)”; in [2] (Table 6, minimal media), “– (“–” indicates that no antimicrobial activity was detected in minimal media at the highest peptide concentration (32μg/ml) that was tested in this study.)”.
As to `CCCCCCCCCCCCCC(=O)N[C@@H](Cc1c[nH]c2ccccc12)C(=O)N[C@@H](CCCCN)C(=O)N[C@@H](CCCCN)C(=O)N[C@@H](CC(C)C)C(=O)N[C@@H](CCCCN)C(=O)N[C@@H](CCCCN)C(=O)N[C@@H](CC(C)C)C(=O)N[C@@H](CC(C)C)C(=O)N[C@@H](CCCCN)C(=O)N[C@@H](CCCCN)C(=O)N[C@@H](CC(C)C)C(N)=O` [pepD3M] (Myristoyl-WKKLKKLLKKL-NH2), the MIC in [6] (setting [17]) is 4 µg/mL (≈ 2.45 µM); in assay [7] (setting [17]), 4 µg/mL (≈ 2.45 µM); in assay [9], 16 µg/mL (≈ 9.78 µM); in [1] (setting [19]), 4 µg/mL (≈ 2.45 µM); in assay [2] (setting [19]), 8 µg/mL (≈ 4.89 µM); in assay [12], 8 µg/mL (≈ 4.89 µM). The MBC/MFC in assay [6] (setting [18]) was 8 µg/mL (≈ 4.89 µM); in [7] (setting [18]), 4 µg/mL (≈ 2.45 µM); in assay [9] it was 16 µg/mL (≈ 9.78 µM); in assay [1] (setting [19]) it was 8 µg/mL (≈ 4.89 µM); in [2] (setting [19]), 8 µg/mL (≈ 4.89 µM); in [12], 16 µg/mL (≈ 9.78 µM). Besides, the “development of the lesion caused by Bc, tomato” value in [8] is “decreased the development of the lesion”. The “development of the lesion caused by Bc, Arabidopsis” value in assay [10] is listed as “decreased the development of the lesion”. The “size of disease lesions caused by Pcc, tomato” value in assay [11] is reported as “significantly reduced the sizes of the disease lesions”. Besides, in assay [13], the “size of disease lesions caused by Pcc, Arabidopsis” value was “significantly reduced the sizes of the disease lesions”.
In assay [5], Ac-WKKIKKIIKKIKKI-NH2 [pepI2] yielded an MBC of 4 µg/mL and an MIC of 4 µg/mL.
Turning to `CCCCCCCCCCCCCC(=O)N[C@@H](Cc1c[nH]c2ccccc12)C(=O)N[C@@H](CCCCN)C(=O)N[C@@H](CCCCN)C(=O)N[C@@H](CC(C)C)C(=O)N[C@@H](CCCCN)C(=O)N[C@@H](CCCCN)C(=O)N[C@@H](CC(C)C)C(=O)N[C@@H](CC(C)C)C(=O)N[C@@H](CCCCN)C(=O)N[C@@H](CCCCN)C(=O)N[C@@H](CC(C)C)C(=O)N[C@@H](CCCCN)C(=O)N[C@@H](CCCCN)C(=O)N[C@@H](CC(C)C)C(N)=O` [pepD2M] (Myristoyl-WKKLKKLLKKLKKL-NH2), the minimum inhibitory concentration (MIC) in assay [6] (setting [17]) came to 4 µg/mL (≈ 2 µM); in [7] (setting [17]), 4 µg/mL (≈ 2 µM); in assay [9], 8 µg/mL (≈ 3.99 µM); in assay [1] (setting [19]), 16 µg/mL (≈ 7.98 µM); in assay [1] (Table 6, minimal media), 16 µg/mL (≈ 7.98 µM); in assay [2] (setting [19]), 8 µg/mL (≈ 3.99 µM). In addition, the MIC in [2] (Table 6, minimal media) worked out at 16 µg/mL (≈ 7.98 µM); in [12], 8 µg/mL (≈ 3.99 µM). Besides, the MBC/MFC was found to be 8 µg/mL (≈ 3.99 µM) in assay [6] (setting [18]); 4 µg/mL (≈ 2 µM) in assay [7] (setting [18]); 8 µg/mL (≈ 3.99 µM) in assay [9]; 16 µg/mL (≈ 7.98 µM) in assay [1] (setting [19]); 16 µg/mL (≈ 7.98 µM) in [2] (setting [19]); 8 µg/mL (≈ 3.99 µM) in assay [12]. Further, in assay [8], the “development of the lesion caused by Bc, tomato” value was “decreased the development of the lesion”. Moreover, the MFC in assay [1] (Table 6, minimal media) is 32 µg/mL (≈ 16 µM); in [2] (Table 6, minimal media), 16 µg/mL (≈ 7.98 µM). For the same molecule, the “development of the lesion caused by Bc, Arabidopsis” value in assay [10] is recorded as “decreased the development of the lesion”. Also, the “size of disease lesions caused by Pcc, tomato” value in assay [11] is given as “significantly reduced the sizes of the disease lesions”. The “membranolytic effect (SYTOX Green staining)” value in [14] and in [15] was “significant membranolytic effect” each time. Also, the “size of disease lesions caused by Pcc, Arabidopsis” value in assay [13] was “significantly reduced the sizes of the disease lesions”.
